{"source": "paper PMC12486440", "about": "“Design, synthesis, and in silico studies of new benzofuran–pyrazole hybrids as multi-kinase inhibitors with potential antiproliferative activity” (RSC Advances, 2025)", "key": {"[1]": {"system": "PC-3"}, "[2]": {"system": "SN12C"}, "[3]": {"system": "NCI-H23"}, "[4]": {"system": "RXF 393"}, "[5]": {"system": "UO-31", "conditions": "Homo sapiens, UO-31"}, "[6]": {"system": "COLO 205", "conditions": "Homo sapiens, COLO 205"}, "[7]": {"system": "OVCAR-5"}, "[8]": {"system": "SNB-19"}, "[9]": {"system": "HS 578T", "conditions": "Homo sapiens"}, "[10]": {"system": "MCF-7 cancer cells", "assay": "Cell cycle analysis (PI flow cytometry)", "assay_type": "cell-based, human", "conditions": "GI50 concentration 2.75 μM, 48 h", "procedure": "More details are presented in the SI.\nGiven that 3d has emerged as a well-balanced active compound that functions as both an anticancer agent and a multi-targeting protein kinase suppressor, it was of interest to gain a deeper understanding of how 3d inhibits the growth of cancer cells. A propidium iodide (PI) staining experiment was performed in this study to look at its effect on cell cycle distribution and apoptosis activation.[81,82]\nThis blocked cell cycle passage at the G0–G1 stage can stop cells from dividing and growing, which is in line with that shown by other tests about the ability of compound 3d to stop cell division and growth (Fig. 3). […]\nminute reaction, 50 μl of Kinase-Glo Max reagent was added to each well. […] 10) Luminescence was measured using the microplate reader. […]\nThe protocol of the experiment depends on the dilution of the enzyme, substrate, ATP, and inhibitors in kinase buffer. […] Then, luminescence (integration time 0.5–1 second) was recorded according to the manufacturer’s instructions. […]\nFurther exploration of the cytotoxic activity of compound 3d was performed using propidium iodide (PI) flow cytomertric analysis to measure the extent of PI that binds to DNA of dead cells with permeable plasma membranes to determine cell cycle status in tissue culture quantitate cell death at all cell phases. […]"}, "[11]": {"system": "Ovarian cancer subpanel", "assay": "NCI 60 subpanel summary", "assay_type": "cell-based, human"}, "[12]": {"system": "TK-10"}, "[13]": {"system": "HOP-92", "conditions": "Homo sapiens, HOP-92"}, "[14]": {"target": "T1, EGFR (WT) (Homo sapiens, UniProt P00533)", "T1 construct": "purchased Sigma", "T1 sequence (P00533 25-1210)": "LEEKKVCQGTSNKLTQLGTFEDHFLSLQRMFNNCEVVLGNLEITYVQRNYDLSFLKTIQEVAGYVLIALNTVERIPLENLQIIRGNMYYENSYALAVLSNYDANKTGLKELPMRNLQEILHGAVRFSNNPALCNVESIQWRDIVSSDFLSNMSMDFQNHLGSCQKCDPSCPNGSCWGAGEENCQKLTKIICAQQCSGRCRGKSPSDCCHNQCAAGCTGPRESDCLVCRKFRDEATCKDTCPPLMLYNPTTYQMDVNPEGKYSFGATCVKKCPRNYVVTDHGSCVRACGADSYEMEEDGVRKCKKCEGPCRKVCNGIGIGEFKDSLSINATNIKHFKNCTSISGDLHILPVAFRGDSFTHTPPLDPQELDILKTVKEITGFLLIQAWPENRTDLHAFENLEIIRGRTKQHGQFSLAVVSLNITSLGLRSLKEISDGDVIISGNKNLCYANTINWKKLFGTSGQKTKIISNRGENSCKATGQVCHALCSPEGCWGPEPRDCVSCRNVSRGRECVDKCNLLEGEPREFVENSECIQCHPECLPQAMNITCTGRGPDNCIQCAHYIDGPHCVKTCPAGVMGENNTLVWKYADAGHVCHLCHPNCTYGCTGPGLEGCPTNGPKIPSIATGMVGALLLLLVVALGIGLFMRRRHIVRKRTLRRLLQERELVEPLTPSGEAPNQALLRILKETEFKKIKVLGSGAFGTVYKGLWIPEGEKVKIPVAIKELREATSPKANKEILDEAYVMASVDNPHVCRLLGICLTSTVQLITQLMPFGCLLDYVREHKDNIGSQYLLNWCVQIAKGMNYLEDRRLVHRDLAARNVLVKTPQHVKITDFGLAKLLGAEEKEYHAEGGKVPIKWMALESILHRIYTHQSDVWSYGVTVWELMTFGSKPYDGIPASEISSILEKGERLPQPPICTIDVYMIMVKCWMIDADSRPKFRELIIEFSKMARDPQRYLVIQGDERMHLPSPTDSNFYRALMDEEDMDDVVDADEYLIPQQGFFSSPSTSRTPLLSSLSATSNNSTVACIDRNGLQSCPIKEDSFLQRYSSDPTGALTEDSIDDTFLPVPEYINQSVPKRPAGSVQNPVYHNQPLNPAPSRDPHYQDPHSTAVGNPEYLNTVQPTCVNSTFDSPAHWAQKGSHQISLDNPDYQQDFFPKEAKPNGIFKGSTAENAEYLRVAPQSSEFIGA", "assay": "EGFR WT kinase inhibitory assay (HTRF)", "assay_type": "biochemical"}, "[15]": {"system": "NCI-H460"}, "[16]": {"system": "BT-549", "conditions": "Homo sapiens, BT-549"}, "[17]": {"system": "MDA-MB-231/ATCC", "conditions": "Homo sapiens"}, "[18]": {"system": "T-47D"}, "[19]": {"system": "DU-145"}, "[20]": {"target": "Pim-1 (Homo sapiens, UniProt P11309)", "sequence (P11309 whole entry)": "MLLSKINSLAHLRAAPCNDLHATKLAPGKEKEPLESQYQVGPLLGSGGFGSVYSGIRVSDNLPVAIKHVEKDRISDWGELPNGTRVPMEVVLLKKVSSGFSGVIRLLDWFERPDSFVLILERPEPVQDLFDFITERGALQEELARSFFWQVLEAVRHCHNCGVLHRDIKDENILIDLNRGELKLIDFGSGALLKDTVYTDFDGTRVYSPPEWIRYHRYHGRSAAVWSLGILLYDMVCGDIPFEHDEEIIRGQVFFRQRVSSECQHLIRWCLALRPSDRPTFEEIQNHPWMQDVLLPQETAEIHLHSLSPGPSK", "assay": "PIM kinase inhibitory assay (ADP-Glo)", "assay_type": "biochemical"}, "[21]": {"system": "UACC-62", "conditions": "Homo sapiens, UACC-62"}, "[22]": {"system": "SK-OV-3", "conditions": "single dose 10 μM; ovarian carcinoma"}, "[23]": {"conditions": "single dose 10 μM, prostate carcinoma"}, "[24]": {"conditions": "single dose 10 μM, renal carcinoma"}, "[25]": {"conditions": "single dose 10 μM, non-small lung carcinoma"}}, "data": [{"smiles": "c1ccc(-n2cc(C3CC(c4nc5ccccc5[nH]4)=NN3)c(-c3cc4ccccc4o3)n2)cc1", "note": "(stereo not drawn) [3d, 3-(Benzofuran-2-yl)-4-(3-(1H-benzo[d]imidazol-2-yl)-4,5-dihydro-1H-pyrazol-5-yl)-1-phenyl-1H-pyrazole]", "values": [{"measurement": "GI50", "setting": "[1]; Homo sapiens, PC-3", "value": 3.47, "unit": "µM"}, {"measurement": "GI%", "setting": "[1]; [23]", "value": 91.14, "unit": "%"}, {"measurement": "GI50", "setting": "[2]; Homo sapiens, SN12C", "value": 3.42, "unit": "µM"}, {"measurement": "GI%", "setting": "[2]; [24]", "value": 88.17, "unit": "%"}, {"measurement": "GI50", "setting": "[3]; Homo sapiens, NCI-H23", "value": 3.69, "unit": "µM"}, {"measurement": "GI%", "setting": "[3]; [25]", "value": 78.78, "unit": "%"}, {"measurement": "GI50", "setting": "[4]; Homo sapiens, RXF 393", "value": 6.25, "unit": "µM"}, {"measurement": "GI%", "setting": "[4]; [24]", "value": 63.52, "unit": "%"}, {"measurement": "GI50", "setting": "[5]", "value": 2.1, "unit": "µM"}, {"measurement": "GI50", "setting": "[6]", "value": 5.28, "unit": "µM"}, {"measurement": "GI50", "setting": "[7]; Homo sapiens, OVCAR-5", "value": 5.52, "unit": "µM"}, {"measurement": "GI%", "setting": "[7]; single dose 10 μM, ovarian carcinoma", "value": 66.23, "unit": "%"}, {"measurement": "GI50", "setting": "[8]; Homo sapiens, SNB-19", "value": 3.77, "unit": "µM"}, {"measurement": "GI%", "setting": "[8]; single dose 10 μM, CNS cancer", "value": 92.86, "unit": "%"}, {"measurement": "GI50", "setting": "[9]", "value": 7.94, "unit": "µM"}, {"measurement": "cell percentage in the G2/M stage", "setting": "[10]; control […]", "value": 15.9, "unit": "%"}, {"measurement": "percentage of cells in the G0–G1 phase", "setting": "[10]; untreated 48.39%", "value": 61.03, "unit": "%"}, {"measurement": "GI50", "setting": "[11]; Homo sapiens, subpanel mean graph midpoint, read-out: MG-MID (GI50)", "value": 4.32, "unit": "µM"}, {"measurement": "Selectivity index", "setting": "[11]; full panel MG-MID / subpanel MG-MID", "value": 0.97}, {"measurement": "GI50", "setting": "[12]; Homo sapiens, TK-10", "value": 4.97, "unit": "µM"}, {"measurement": "GI%", "setting": "[12]; [24]", "value": 75.14, "unit": "%"}, {"measurement": "GI50", "setting": "[13]", "value": 4.78, "unit": "µM"}, {"measurement": "IC50", "setting": "[14]", "value": 0.398, "unit": "µM"}, {"measurement": "times more effective at suppressing EGFR (WT) than erlotinib", "setting": "[14]; ratio of IC50 values", "value": 1.2}, {"measurement": "GI50", "setting": "[15]; Homo sapiens, NCI-H460", "value": 3.64, "unit": "µM"}, {"measurement": "GI%", "setting": "[15]; [25]", "value": 97.07, "unit": "%"}, {"measurement": "GI50", "setting": "[16]", "value": 3.85, "unit": "µM"}, {"measurement": "GI50", "setting": "[17]", "value": 4.78, "unit": "µM"}, {"measurement": "GI50", "setting": "[18]; Homo sapiens, T47D", "value": 3.12, "unit": "µM"}, {"measurement": "GI%", "setting": "[18]; single dose 10 μM, breast carcinoma", "value": 88.48, "unit": "%"}, {"measurement": "GI50", "setting": "[19]; Homo sapiens, DU-145", "value": 5.15, "unit": "µM"}, {"measurement": "GI%", "setting": "[19]; [23]", "value": 67.57, "unit": "%"}, {"measurement": "IC50", "setting": "[20]", "value": 2.37, "unit": "µM"}, {"measurement": "times less sensitive, Pim-1, than to staurosporine", "setting": "[20]; ratio of IC50 values", "value": 4.9}, {"measurement": "GI50", "setting": "[21]", "value": 1.84, "unit": "µM"}, {"measurement": "GI%", "setting": "[22]", "value": 62.21, "unit": "%"}]}]}
